Results: patent US11517578B1, “Topical formulations containing erythritol and methods of treating skin conditions” (InnoMed Technologies, Inc., priority 2021, dated 2022)
“Also recorded” adds a separate entry of the source.

System: facial acne
Assay: Topical treatment of facial acne in patients (case examples 1-3)
Assay type: in vivo, human
Conditions: patient history: OTC benzoyl peroxide gels and washes tried before the formulation
Text: In this example, a person visits a healthcare professional and complains of facial acne that has been persistent for the past three years. They describe sporadic facial breakouts that began gradually, varied in severity and never completely cleared. They explain that the breakouts contribute to feelings of low self-esteem.
The healthcare professional administers the formulation of erythritol and zinc to the patient. As detailed in Table 2, the formulation includes erythritol (3.75%) and zinc chloride (1.25%). The formulation allows for effective transdermal administration of the zinc chloride-erythritol mixture which can prevent or ameliorate bacterial growth at or near skin pores and hair follicles.
The patient is also advised to continue daily use of an OTC facial wash. After washing and rinsing the face, the patient applies the formulation to the entire face. After five to ten minutes, the face can be rinsed with water. The routine is repeated each day (i.e., twice per day). Within ten days, the acne is resolved by about 80% (i.e., about 80% of the acne is gone). The comedones, papules and pustules are less apparent and only visible at close proximity. The patient resumes twice daily use of the formulation. Within two weeks the signs/symptoms of acne are resolved by about 95%. The patient has a clear complexion. […]

O=C(OOC(=O)c1ccccc1)c1ccccc1 [benzoyl peroxide]
improvement of facial acne: without improvement; also recorded: minimal or no significant improvement
